Results: US6991818B2, “Compound iso-squamocin obtained from seeds of annona squamosa and composition containing the same” (Council of Scientific & Industrial Research, priority 2001, dated 2006)
Converted amounts (≈) assume the structure as drawn. Read-outs that look alike come from different tables or passages of the source.

Experiments:
[1] = test system: yellow fever mosquito Aedes aegyptii; conditions: cited from earlier work
[2] = test system: certain human tumor cell lines; conditions: values as low as; cited from earlier work
[3] = test system: newly hatched variegated cutworm (peridroma saucia, Noctuidae); experiment: Chronic larval growth bioassay; format: in vivo; conditions: 10 days at 26° C.; for activity at 20 ppm: Peridroma saucia, 240 h; for activity at 20 ppm / Larval growth, % of control / Larval survival, % of control: newly hatched larvae (n=20), 20 ppm
Method: Chromic larveal growth bioassay % of control given in parenthesis. […] These bioassays were carried out according to the procedure described earlier (M. B. Isman, O. Koul, A. Luczynski and J. Kaminski, J. Agric. Food Chem. 38, 1406 (1990). These tests were performed by Prof. M. B. Isman and colleagues at University of British Columbia, Vancouver, Canada.

[4] = test system: lung cell line (A-549); conditions: cited from earlier work
[5] = test system: colon cell line (H-29); conditions: cited from earlier work
[6] = test system: Two spotted spidermite (TSSM); experiment: Evaluation screen (EVAL) for insecticidal activity; format: in vivo; conditions: 250 ppm
Source text: (§1) Two spotted spidermite, green peach aphid (GPA) and corn plant hopper (GPH) when they were subjected evaluation screen (Eval) and evaluation screen delayed toxicity test EVDT for the insecticidal activity and results are summarized below: […]

[7] = test system: Southern Corn rootworm (SCRW); experiment: Evaluation screen (EVAL) for insecticidal activity; format: in vivo; conditions: 250 ppm
[8] = test system: oriental armyworm (Mythimna separata WLK) larvae; experiment: Insect antifeedant bioassay on sorghum leaf discs; format: in vivo; conditions: for mortality: first and third instar larvae, concentration of 0.05% (MeOH) at 27°, untreated control 7% mortality; for Damage rating: 0.05% in methanol, visual scale 1 to 9 (1=<10%, 9=>80% leaf area consumed)
Method: The sample solutions (10 μl of a 0.05% solution) were applied evenly to the lower surface of leaf discs (5 cm^2) cut from sorghum hybrid variety CSH5 and the discs were allowed to dry on filter papers. After drying the leaf, discs were offered to 10 first instar M. separata larvae in plastic cups or to one third instar larva in 9-cm (diameter) plastic petric dishes. All larvae were starved for 2 h before the test and the leaf and the leaf discs were kept on moisture filter papers to keep them turgid. The larvae were confined to leaf discs for 24 h and during the period the larvae scratched or consumed >80% of the leaf disc area in the untreated controls. The leaf discs were rated visually for the extent of feeding on a scale upto 1 to 9 (1=<10%, 2=11 to 20%, 3=21 to 30%, 4=31 to 40%, 5=41 to 7=61 to 70%, 8=71 to 80%, 9=>80% leaf area scratched consumed). The larvae were then stirred for 12 h and weighed. Isosquamocin was evaluated by this procedure and the results have shown that it drastically. The feeding of the leaves of sorghum hybrid variety CSH 5 at a concentration of 0.05% in methanol) in comparison with control (methanol) against the first instar and third instar larvae of oriental armyworm (Mythimna separata WLK). It is very toxic to first instar larvae causing high larval mortality and the results are presented below: […]

[9] = test system: Two spotted spidermite (TSSM); experiment: Evaluation screen delayed toxicity test (EVADT); format: in vivo; conditions: 250 ppm
Source text: as §1

[10] = test system: green peach aphid (GPA); experiment: Evaluation screen delayed toxicity test (EVADT); format: in vivo; conditions: 250 ppm
Source text: as §1

[11] = test system: corn plant hopper (CP-H); experiment: Evaluation screen delayed toxicity test (EVADT); format: in vivo; conditions: 250 ppm
Source text: as §1

[12] = test system: L-5178 Y; conditions: in vitro cytotoxic activity against L-5178 Y; cited from earlier work
[13] = test system: two sported spider mite; conditions: in vivo; cited from earlier work
[14] = test system: southern corn rootworm; conditions: in vivo; cited from earlier work
[15] = test system: cotton aphid; conditions: in vivo; cited from earlier work
[16] = Solubility of the waxy substance; format: physicochemical
[17] = First instar larvae, 0.05% in methanol on leaf discs, 24 h

Molecule: CCCCCCCCCCCCC(O)C1CCC(C(O)CCCCC(O)CCCCCC(O)CC2=CC(C)OC2=O)O1 (stereo not drawn) [annonacin A, reference compound]
- LC 50 [1]: 10.8 mg/lit^−1

Molecule: CCCCCCCCCC[C@H](O)[C@H]1CC[C@H]([C@H](O)CC[C@H](O)[C@@H]2CC[C@@H](CCCCCCC[C@@H](O)CC3=C[C@H](C)OC3=O)O2)O1 [bullatalicin, bullatalicin/squamostatin-B]
- ED50 [2]: ≥ 10^−7 ug/ml
- activity at 20 ppm ([3]; read-out: Larval growth, % of control): 135%
- activity at 20 ppm ([3]; read-out: Larval survival, % of control): 100%
- times more toxic than adriamycin [4]: about 10,000 times
- LC 50 [1]: 9 mg/lit^−1
- times more toxic than adriamycin [5]: about 10,000 times

Molecule: CCCCCCCCCC[C@H](O)[C@H]1CC[C@H]([C@H]2CC[C@H]([C@H](O)CCCCCCCCCC[C@@H](O)CC3=C[C@H](C)OC3=O)O2)O1 [squamocin-G]
- TSSM [6]: L8 (Less than 80% mortality)
- Larval growth, % of control [3]: 34%
- Larval survival, % of control [3]: 45%
- EC 50 ([3]; chronic larval growth bioassay): 5.65 ppm
- LC 50 ([3]; chronic larval growth bioassay): 12 ppm
- SCRW [7]: 100
- mortality [8]: 70%
- TSSM [9]: L9 (Less than 90% reduction in population)
- GPA [10]: L8 (Less than 80% mortality)
- CP-H [11]: G8 (Greater than 80% reduction in population)

Molecule: CCCCCC[C@@H](O)CCC[C@H](O)[C@@H]1CC[C@@H]([C@H](O)CC[C@@H](O)[C@@H]2CC[C@@H](CCCCCCCCCC3=C[C@@H](C)OC3=O)O2)O1 [squamostatin-A]
- IC50 [12]: 0.5 µg/mL (≈ 0.783 µM)
- Larval growth, % of control [3]: 138%
- Larval survival, % of control [3]: 100%

Molecule: bullatacin
- insecticidal concentration, two sported spider mite [13]: 10 ppm
- insecticidal concentration, southern corn rootworm [14]: 24 ppm
- insecticidal concentration, cotton aphid [15]: 1 ppm

Molecule: bullatanocin/squamostatin-C/Annonin-V/Cherimolin-II
- times more toxic than adriamycin [4]: about 10,000 times
- times more toxic than adriamycin [5]: about 10,000 times

Molecule: isosquamocin
- TSSM [6]: L8 (Less than 80% mortality)
- Larval growth, % of control [3]: 20%
- Larval survival, % of control [3]: 55%
- SCRW [7]: 100
- Larval Survival (%) [8, 17]: 10.4%
- Mean larval mass [8, 17]: 0.2 mg
- Damage rating ([8]; First instar larvae): 1.3
- Mean larval mass ([8]; Third instar larvae, 0.05% in methanol on leaf discs, 24 h): 15.7 mg
- Damage rating ([8]; Third instar larvae): 1.0
- mortality [8]: 70%
- Solubility in ether, chloroform, dichloromethane, acetone, methanol and ethyl acetate [16]: readily soluble
- Solubility in petroleum ether/hexane and water [16]: insoluble or very sparingly soluble
- TSSM [9]: L9 (Less than 90% reduction in population)
- CP-H [11]: G8 (Greater than 80% reduction in population)
